# Measured values published in patent US20250346938A1, “ATP-DEPENDENT C-TERMINAL MODIFICATION OF POLYPEPTIDES” (Wisconsin Alumni Research Foundation, priority 2024, published 2025).
# Ends that are not written are not given here.
# T1: MccA-N7G (E. coli TeCH-tag peptide MRTGNAG)
# T1 chain: MRTGNAG
# B1: E. coli MccB (protein)
# chain: MGHHHHHHDYDIPTTENLYFQGSMDYILGRYVKIARYGSGGLVGGGGKEQYVEDLALWENIIKTAYCFITPSSYTAALETVNIPEKDFSNCFRFLKENFFIIPSEYNNSTENNRYSRNFLHYQSYGANPVLVQDKLKDAKVVILGCGGIGNHVSVILATSGIGEIILIDNDQIENTNLTRQVLFSENDVGKNKTEVIKRELLKRNSEISVSEIALNINDYTDLHKVPEADIWVVSADHPFNLINWVNKYCVRANQPYINAGYVNDIAVFGPLYVPGKTGCYECQKVVADLYGSEKENIDHKIKLINSRFKPATFAPVNNVAAALCAADVIKFIGKYSEPLSLNKRIGIWSDEIKIHSQNMGRSPVCSVCGNRM
# How the values were obtained:
# HsM ccB = test: H. somni MccB-catalyzed peptide thioester synthesis; type: biochemical; conditions: for thioesterification: Mesna as thiol donor
# Description: Reactions were incubated for 16 hours at room temperature and quenched with addition of an equivalent volume of 0.6% TFA. […] To screen the ability of H. somni M ccB to catalyze thioesterification of HsLACE peptides, reactions contained M ccB ([…]), ATP (5 mM), M gCl2 (5 mM), peptide substrate (0.25 mM), 25 mM M esna or AcCysNHM e, and reaction buffer (100 mM HEPES, pH 8.0).
# H. somni M ccB-catalyzed peptide thioester synthesis. For screening the activity of HsM ccB on HsTeCH, HsLACE1-4, and LACE substrate peptide, […] reactions were prepared that contained 100 mM HEPES, pH 8.0, HsM ccB ([…]), HsTeCH, HsLACE1-4, or LACE peptide ([…]), ATP (5 mM), M gCl2 (5 mM), and thiol (M esna or AcCysNHMe, 25 mM). Reactions were initiated by addition of HsM ccB and incubated for 16-20 h at room temperature. Raw data are available in the Dryad repository at DOI: 10.5061/dryad.c59zw3rkb.
# M ccB [1] = test: Screening nucleophiles for MccB-mediated modification of MccA-N7G (LC-TOF MS); type: biochemical, E. coli; conditions: HPLC-MS
# Description: Screening nucleophiles for MccB-mediated ligation of synthetic peptide substrates. Nucleophile were dissolved in water and adjusted to neutral pH using paper pH strips (EM D Millipore). Solutions were stored at −80° C. until further use, unless otherwise noted. M ccA-N7G (250 μM) was incubated with 5 μM MccB, 5 mM ATP, and the corresponding concentration of nucleophile in reaction buffer (25 mM Tris pH 8.0, 10 mM M gCl2). Reactions were incubated for 16 hours at room temperature and quenched with addition of an equivalent volume of 0.6% TFA. […] Extracted ion chromatogram (EIC) peak areas were calculated using Agilent TOF Quantitative Analysis v11.0. Percent conversion of substrate to nucleophile-modified product was calculated using the integrated peak areas from the substrate peptide EIC and production EIC using the formula shown below.
# M ccB [2] = test: MccB-catalyzed C-terminal thioesterification / Cys ligation of TeCH-tag fusion proteins (intact protein LC-MS); type: biochemical, E. coli
# Description: M ccB-mediated ligation of GFP-MccA-N7G protein substrates. GFP-M ccA-N7G variant (50 μM) was incubated with 5 μM MccB, 5 mM ATP, and the appropriate concentration of cysteine or Mesna/TCEP in reaction buffer (25 mM Tris pH 8.0, 10 mM M gCl2). Reactions were incubated at room temperature for the indicated times. For labeling time course experiments, reactions were quenched with the addition of an equivalent volume of 0.6% TFA.
# M ccB [3] = test: One-pot expressed protein ligation of GFP-TeCH with N-terminal Cys peptide CGAGS-azidoAla; type: biochemical, E. coli; conditions: MccB, ATP, Mesna
# HpM ccB = test: C-terminal thioesterification of MccA-N7G peptides by H. pylori MccB (LC-MS); type: biochemical; conditions: HpMccB, ATP, Mesna, 16 h
# LjM ccB = test: C-terminal thioesterification of MccA-N7G peptides by L. johnsonii MccB (LC-MS); type: biochemical; conditions: LjMccB, ATP, Mesna, within 16 h
# Ubc9 = target: T2, Ubc9 (Homo sapiens, UniProt P63279); test: Ubc9-catalyzed lysine acylation (LACE) of GFP-LACE-tag with MccB-generated thioesters; type: biochemical
# T2 construct: Ubc9; Calc: 20,632 Da (M et loss); Observed: 20,632 Da, 20,810 Da (N-gluconylation); made in house; host or cells: E. coli BL21 (DE3)
# Description: For larger scale synthesis of MLGLRGG-Mes (HsLACE3-M es) (SEQ ID NO: 88), identical reaction conditions and reagent concentrations were used in a volume of […]. Reactions were quenched by addition of trifluoroacetic acid (TFA) to 1% final concentration and were desalted on SOLA HRP C18 solid-phase extraction columns (10 mg format, Thermo Fisher Scientific). Columns were conditioned with 100% acetonitrile ([…]) and equilibrated with 0.1% TFA (2× 1 mL). The acidified sample was then loaded onto the column. The column was washed with 0.1% TFA (2×1 mL) and eluted with 80% acetonitrile/20% water ([…]). The eluted peptide thioester was dried in a vacuum concentrator (SpeedV ac SPD 130DLX, Thermo Fisher Scientific) and dissolved in water. The recovered peptide was quantified using the Pierce Quantitative Fluorometric Peptide A ssay Kit (Thermo Fisher Scientific). Typical recovery from desalting was 50%.
# Lysine acylation using conjugating enzymes (LACE) of GFP-LACE-tag using M ccB-generated thioesters. GFP-LACE-tag ([…]), U bc9 ([…]), MLGLRGG-Mes (SEQ ID NO: 88) or other C-terminal thioesters as indicated in the text ([…]) were incubated in reaction buffer (100 mM HEPES, pH 8.0, 50 mM K CI) at 30° C. for 16 h. For pH optimization, reaction buffer was either 100 mM HEPES, pH 7.6, 50 mM KCl or 100 mM HEPES, pH 8.0, 50 mM KCl. […]
# E. coli M ccB [4] = test: Enzyme-coupled pyrophosphate (PPi) release assay, E. coli MccB; type: biochemical; conditions: for stimulation of PPi formation: MccA C-terminal variant as substrate for MccB
# From the text: FIG. 31. Enzyme-coupled pyrophosphate assay for detection of M ccB-catalyzed pyrophosphate release. M ccB-catalyzes release of pyrophosphate, which is converted to phosphate by inorganic pyrophosphatase (PPiase). Purine nucleoside phosphorylase (PN Pase) uses phosphate as a substrate to convert 2-amino-6-mercapto-7-methylpurine ribonucleoside (M ESG) to ribose 1-phosphate and 2-amino-6-mercapto-7-methylpurine, which absorbs at 360 nm.
# Purine nucleoside phosphorylase (PNP)/inorganic pyrophosphate (IP)-coupled kinetic assays. The kinetics of M ccB-catalyzed adenylation were characterized using an enzyme-coupled assay for detecting formation of pyrophosphate EnzCheck Pyrophosphate Assay Kit (Thermo Fisher Scientific) (FIG. 31). To screen M ccB for adenylation activity with C-terminal variants of MccA, 5 μM of the appropriate MccB variant was incubated with 0.25 mM of each M ccA variant in a reaction with 0.25 mM ATP, 5 mM M gCl2, 0.5 U/mL purine nucleoside phosphorylase (PNP), and 0.5 U/mL inorganic pyrophosphatase (IP). To screen E. coli, H. pylori, and L. johnsonii M ccB homologs for adenylation activity with MccA homologs, 5 μM of the appropriate MccB enzyme was incubated with 0.25 mM of each M ccA variant in a reaction with 0.25 mM ATP, 5 mM M gCI2, 0.5 U/mL purine nucleoside phosphorylase (PNP), and 0.5 U/mL inorganic pyrophosphatase (IP). Reactions containing HpM ccA-N7G and LjM ccA-N 7G peptides also contained 5 mM M esna and 5 mM TCEP. To collect steady-state kinetics data for individual peptide substrates, the peptide concentration was varied from 0-600 μM in a reaction with 5 μM MccB, 0.25 mM ATP, 5 mM MgCl2, 0.5 U/mL purine nucleoside phosphorylase (PNP), and 0.5 U/mL inorganic pyrophosphatase (IP). […] We therefore repeated measurements for the MccA-N7G peptide using an MccB concentration of […] and a substrate concentration range from 0-100 μM. Reactions were initiated with the addition of M ccB and absorbance at 360 nm was monitored using a Tecan Infinite M 200 plate reader. Initial rates of pyrophosphate production were calculated based on the initial rate of absorbance change and the resulting purine analog extinction coefficient (11,000 M-1 cm-1). Reactions were carried out in triplicate and data analysis was performed using GraphPad Prism 10.
# M ccB [5] = test: MccB-catalyzed native chemical ligation of MccA-N7G with Mesna and Cys-Trp; type: biochemical, E. coli; conditions: both Mesna and Cys-Trp in the reaction, 4 hours
# Description: MccA-N7G thioester exchange with N-terminal Cys peptide. C-terminal thioester was prepared in reactions containing 250 μM MccA-N7G, 5 μM MccB, 5 mM ATP, and 5 mM Mesna/TCEP in reaction buffer (25 mM Tris pH 8.0, 10 mM M gCl2). A fter incubating for 16 hours at room temperature, 20 mM Cys-Trp peptide was added to each reaction and incubated for an additional 4 hours. Reactions were quenched with the addition of an equivalent volume of 0.6% TFA.
# E. coli M ccB [6] = test: LC-TOF MS analysis of MccB-catalyzed AMPylation of MccA variants; type: biochemical; conditions: HPLC-MS assay
# Description: LC-TOF MS analysis of M ccB reactions with synthetic peptide substrates. […] Reactions were incubated for 16 hours at room temperature and quenched with addition of an equivalent volume of 0.6% TFA. These reaction conditions were used for M ccBs from E. coli, H. pylori, L. johnsonii, and H. somni.
# LC-TOF MS analysis of M ccB-catalyzed N-AM Pylation of M ccA positional scanning peptide library. MccA variants were synthesized individually in-house (according to Solid-phase peptide synthesis) or were purchased from Peptide2.0. […] Reactions were incubated for 16 hours at room temperature and quenched with addition of an equivalent volume of 0.6% TFA. […] Percent conversion was calculated using peak areas from substrate and product EICs. Raw data are available in the Dryad repository at DOI: 10.5061/dryad.c59zw3rkb.
# [7] = target: T1, MccA-N7G (E. coli TeCH-tag peptide …)
# Sequence of HpM ccB (as listed by the source): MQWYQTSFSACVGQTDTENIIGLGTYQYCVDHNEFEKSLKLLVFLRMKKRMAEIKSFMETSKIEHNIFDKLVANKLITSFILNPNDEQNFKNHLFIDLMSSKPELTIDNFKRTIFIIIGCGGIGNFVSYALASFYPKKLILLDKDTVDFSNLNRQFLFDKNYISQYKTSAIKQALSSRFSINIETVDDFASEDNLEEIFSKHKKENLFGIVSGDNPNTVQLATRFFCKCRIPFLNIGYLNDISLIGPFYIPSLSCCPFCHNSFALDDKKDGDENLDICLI
# T2 sequence (P63279 with tags, fused parts or gaps): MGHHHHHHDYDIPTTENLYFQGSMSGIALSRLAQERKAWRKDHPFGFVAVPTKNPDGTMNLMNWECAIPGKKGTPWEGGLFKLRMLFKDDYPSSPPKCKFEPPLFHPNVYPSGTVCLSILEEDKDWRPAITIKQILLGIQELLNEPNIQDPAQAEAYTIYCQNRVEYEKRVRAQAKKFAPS
# Sequence of LjM ccB (as listed by the source): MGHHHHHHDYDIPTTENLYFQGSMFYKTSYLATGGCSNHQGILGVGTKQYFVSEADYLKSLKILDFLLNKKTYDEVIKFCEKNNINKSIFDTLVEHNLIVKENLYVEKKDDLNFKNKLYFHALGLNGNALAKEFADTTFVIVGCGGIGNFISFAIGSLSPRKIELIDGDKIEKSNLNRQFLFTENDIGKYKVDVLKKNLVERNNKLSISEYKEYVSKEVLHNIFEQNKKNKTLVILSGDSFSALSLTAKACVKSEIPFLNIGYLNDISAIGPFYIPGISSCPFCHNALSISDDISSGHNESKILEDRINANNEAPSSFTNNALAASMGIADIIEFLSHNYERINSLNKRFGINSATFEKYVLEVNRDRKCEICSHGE
molecule,measurement,setting,value
CNC(=O)[C@H](CS)NC(C)=O [A cCysNHM e],thiol donor for HsMccB-catalyzed thioesterification,HsM ccB,poor thiol donor
"O=C(O)Cc1ccc(S)cc1 [M PAA, 4-mercaptophenylacetic acid]",capture of O-AMPylated intermediate / modification of MccA-N7G C terminus by nucleophile,M ccB [1],inability
C#CCCNC(=O)c1ccc(CCNN)cc1 [N-(but-3-yn-1-yl)-4-(2-hydrazineylethyl)benzamide],capture of O-AMPylated intermediate / modification of MccA-N7G C terminus by nucleophile,M ccB [1],unable to modify
"Cl.NO [hydroxylamine, hydroxylamine hydrochloride]",capture of O-AMPylated intermediate / modification of MccA-N7G C terminus by nucleophile,M ccB [1],efficient capture
Cys-Trp,capture of O-AMPylated intermediate / modification of MccA-N7G C terminus by nucleophile,M ccB [1],no modification
GFP-TeCH-tag: Cys-free GFP fused to MccA-N7G TeCH-tag (SEQ ID NO: 73),conversion to the Mesna thioester,"M ccB [2]; 5 mM Mesna, 5 mM ATP, 30 min",near-quantitative
same,Cys ligation yield,"M ccB [2]; ATP (5 mM), Cys (5 mM), 1 h",99%
same,time to complete conversion to thioester,"M ccB [2]; ATP (5 mM), Mesna (5 mM)",1 h
same,modification with azide-bearing peptide CGAGS-3-azido-Ala,M ccB [3],quantitatively modified
LRLRGG (not fully specified (C-terminus)),thioesterification,HsM ccB,18%
M KLSY RG (MKLSYRG) [HpM ccA-N7G],"conversion to C-terminal thioester, yield",HpM ccB,> 97%
MHRIM KG (MHRIMKG) [LjM ccA-N7G],"conversion to C-terminal thioester, yield",LjM ccB,> 97%
"MHRIMKN (listed as Lactobacillus johnsonii) [LjM ccA, at b127 probably the N7G variant is meant, reference compound]","conversion to C-terminal thioester, yield",HpM ccB,13%
MLGLRGG (listed as Histophilus somni) [HsLACE3],modification of the LACE-tagged protein,Ubc9; HsMccB-generated thioester after C18 spin column thiol removal,94%
same,conversion to modified GFP-LACE,Ubc9; one-pot and telescoped HsMccB/Ubc9 reactions,1-15%
MLRLRGG (listed as Histophilus somni) [HsLACE4],thioesterification,HsM ccB,< 1%
MRTGNAG [MccA-N7G],stimulation of PPi formation,E. coli M ccB [4],substantial stimulation
same,Km,"E. coli M ccB [4]; initial fitting, 5 μM MccB, peptide 0-600 μM, pyrophosphate release, read-out: apparent KM",8.9 µM
same,"conversion to MccA-N7G-CW, yield",M ccB [5],82%
same,formation of stably AMPylated product,E. coli M ccB [6],no stably A M Pylated product was observed
MccA-N7A: E. coli MccA (MRTGNAN) with C-terminal Asn varied to Ala (MRTGNAA),stimulation of PPi formation,E. coli M ccB [4],substantial stimulation
same,formation of stably AMPylated product,E. coli M ccB [6],no stably A M Pylated product was observed
MccA-N7S: E. coli MccA (MRTGNAN) with C-terminal Asn varied to Ser (MRTGNAS),stimulation of PPi formation,E. coli M ccB [4],substantial stimulation
same,formation of stably AMPylated product,E. coli M ccB [6],no stably A M Pylated product was observed
MccA-N7T: E. coli MccA (MRTGNAN) with C-terminal Asn varied to Thr (MRTGNAT),stimulation of PPi formation,E. coli M ccB [4],substantial stimulation
same,formation of stably AMPylated product,E. coli M ccB [6],no stably A M Pylated product was observed
B1,"apparent KM, enzyme-coupled pyrophosphate release assay (steady-state kinetics)",[7],8.9 ± 0.9 µM
